# Experimental data from patent US9476099B2 (TRUSTEES OF DARTMOUTH COLLEGE, priority 2012, dated 2016).
# System: gene promoters in NT2/D1-R1 control and DNMT3B knockdown cells
# Experiment: Genome-wide promoter methylation analysis, HumanMethylation27 BeadChip (Table 15)
# Type: cell-based, human
# Details: three days low-dose decitabine, control NT2/D1-R1
# Procedure: DNA methylation analysis was performed in samples in triplicate using the […] […] assay with the HumanMethylation27 BeadChip ([…]) and the BeadChip was scanned on the BeadArray Reader ([…]), according to the manufacturer's instructions. Raw data was normalized and analyzed with Genome Studio software ([…]). The HumanMethylation27 BeadChip assays 27,578 CpGs covering more than 14,000 genes, mostly from promoter regions. […] Hierarchical clustering was performed as stated above. HumanMethylation27 BeadChip data and gene expression microarray data were submitted to NCBI GEO.
smiles,measurement,setting,value
"Nc1ncn([C@H]2C[C@H](O)[C@@H](CO)O2)c(=O)n1 [decitabine, 5-aza-deoxycytidine]",genes with altered promoter methylation,,388 genes
same,genes with decreased levels of promoter methylation,of 388 genes,305 genes
